# From ChEMBL document CHEMBL1201862, “PubChem BioAssay data set” (2004)
# Calls of active or inactive are those of the source.
# Tests used:
# CHO = assay: cytotoxicity in TLR9-MyD88 CHO cells, dose response, cytotoxicity control for TLR9-MyD88 binding inhibitor project, cell-based, luminescence (AID 588339); format: functional, hamster; conditions: Cricetulus griseus;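 further: CHO cells stably coexpressing TLR9 and MyD88 fusions from primary screen; compound exposure lasted 48 hours before viability readout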
# Nonstructural protein 1 = Nonstructural protein 1 (Influenza A virus, UniProt Q194T2); format: functional, Influenza A virus (A/California/07/2009(H1N1))
# HEK293 = assay: inhibitors of LMP1-driven NF-kB reporter, dose response, cell-based, HEK293, luciferase, cherry-pick (AID 588343); format: functional; conditions: Homo sapiens
# A-375 = assay: A375 melanoma cell viability reduction, dose response, counter-screen for MITF modulator project, cherry-pick samples, set 2 (AID 540335); format: functional, cell-based; conditions: Homo sapiens
# Vero [1] = assay: cells; format: functional; conditions: Chlorocebus sabaeus
# Vero [2] = assay: cells; format: functional, cell-based; conditions: Chlorocebus sabaeus
# [3] = molecular target: Heat shock protein HSP 90-alpha (Homo sapiens, UniProt P07900); format: functional, organism-based
# [4] = molecular target: T1, Microphthalmia-associated transcription factor (Homo sapiens, UniProt O75030); assay: TRPM1 promoter luciferase signal decrease, dose response, MITF inhibitor project, cell-based, SK-MEL-5, cherry-picked, set 3 (AID 493073); format: functional
# T1 sequence (O75030 whole entry): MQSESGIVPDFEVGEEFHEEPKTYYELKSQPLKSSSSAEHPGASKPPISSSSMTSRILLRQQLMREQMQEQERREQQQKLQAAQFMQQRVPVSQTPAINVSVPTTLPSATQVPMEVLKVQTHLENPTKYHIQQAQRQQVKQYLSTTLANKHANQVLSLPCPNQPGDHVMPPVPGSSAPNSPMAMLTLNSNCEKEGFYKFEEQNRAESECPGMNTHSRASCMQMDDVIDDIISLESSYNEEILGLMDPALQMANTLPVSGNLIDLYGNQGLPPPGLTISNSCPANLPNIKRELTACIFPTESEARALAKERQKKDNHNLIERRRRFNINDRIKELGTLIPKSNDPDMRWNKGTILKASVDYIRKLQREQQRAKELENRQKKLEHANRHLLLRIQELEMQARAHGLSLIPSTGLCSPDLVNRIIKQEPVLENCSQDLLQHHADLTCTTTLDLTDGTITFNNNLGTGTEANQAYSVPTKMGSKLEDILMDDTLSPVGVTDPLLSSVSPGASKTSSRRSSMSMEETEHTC
# [5] = molecular target: Latent membrane protein 1 (Human herpesvirus 4 (strain B95-8), UniProt P03230); assay: TES1-eGFP NF-kB reporter inhibition versus Tet-On dsRED, dose response, selectivity assay for LMP1 NF-kB inhibitor project, imaging, HEK293T, dual-color eGFP/dsRED, cherry-picks (AID 588398); format: functional, cell-based
# [6] = molecular target: Glucose-6-phosphate 1-dehydrogenase (Homo sapiens, UniProt P11413); assay: human G6PD enzyme inhibitors, dose response, selectivity assay for P. falciparum G6PD inhibitor project, biochemical, fluorescence (AID 504792); format: functional
# [7] = molecular target: Glycogen synthase kinase-3 beta (Homo sapiens, UniProt P49841); assay: Inhibition of Human GSK-3 beta Activity Measured in Biochemical System Using Microfluidics - 2063-05_Inhibitor_Dose_DryPowder_Activity. [Related pubchem assays (depositor defined):AID2709]
# [8] = molecular target: Glycogen synthase kinase-3 alpha (Homo sapiens, UniProt P49840); assay: Inhibition of Human GSK-3 alpha Activity Measured in Biochemical System Using Microfluidics - 2063-06_Inhibitor_Dose_DryPowder_Activity. [Related pubchem assays (depositor defined):AID2709]
# [9] = inhibitors of cytokine-induced nitrite release, dose response, cell-based, Griess absorbance, INS-1E, dry powder, set 3 (AID 488870); format: functional; conditions: Rattus norvegicus
# INS1 [10] = assay: protection from cytokine-driven beta-cell apoptosis, dose response, JC-1 fluorescence, INS-1E, dry powder, set 2 (AID 488867); format: functional, cell-based; conditions: Rattus norvegicus
# INS1 [11] = assay: protection of INS-1E cells from cytokine death, dose response, ATP luminescence, dry powder (AID 488844); format: functional, cell-based; conditions: Rattus norvegicus
# INS1 [12] = assay: protection from cytokine-induced mitochondrial depolarization, dose response, cell-based, INS-1E, JC-1 fluorescence ratio, dry powder (AID 488931); format: functional; conditions: Rattus norvegicus
# [13] = molecular target: Beta-2 adrenergic receptor (Homo sapiens, UniProt P07550); assay: beta2AR agonists driving receptor internalization, dose response, cell-based, FAP fluorogen, flow cytometry, cherry pick 1 (AID 588763); format: functional
# [14] = molecular target: 5-hydroxytryptamine receptor 1A (Homo sapiens, UniProt P08908); format: functional
# Escherichia coli = assay: microbe, parasite or virus in culture
# Sequence of 5-hydroxytryptamine receptor 1A (P08908 whole entry): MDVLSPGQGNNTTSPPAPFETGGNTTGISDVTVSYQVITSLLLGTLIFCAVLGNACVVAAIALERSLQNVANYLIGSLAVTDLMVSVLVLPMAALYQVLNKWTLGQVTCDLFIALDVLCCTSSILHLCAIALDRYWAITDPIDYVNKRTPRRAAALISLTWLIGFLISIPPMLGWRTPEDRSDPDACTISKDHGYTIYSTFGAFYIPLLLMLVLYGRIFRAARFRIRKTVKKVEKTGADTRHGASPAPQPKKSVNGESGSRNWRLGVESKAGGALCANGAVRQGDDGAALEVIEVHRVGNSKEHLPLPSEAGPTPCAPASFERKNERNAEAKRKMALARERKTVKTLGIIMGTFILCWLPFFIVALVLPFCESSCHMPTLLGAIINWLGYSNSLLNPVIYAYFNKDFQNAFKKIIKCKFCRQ
# Sequence of Nonstructural protein 1 (Q194T2 whole entry): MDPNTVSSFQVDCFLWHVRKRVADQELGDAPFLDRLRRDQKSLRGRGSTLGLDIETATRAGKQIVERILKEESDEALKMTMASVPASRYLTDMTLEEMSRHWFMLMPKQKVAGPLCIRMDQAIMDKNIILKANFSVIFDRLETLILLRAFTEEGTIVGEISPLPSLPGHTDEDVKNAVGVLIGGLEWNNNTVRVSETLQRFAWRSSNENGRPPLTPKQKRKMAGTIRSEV
# Sequence of Glucose-6-phosphate 1-dehydrogenase (P11413 whole entry): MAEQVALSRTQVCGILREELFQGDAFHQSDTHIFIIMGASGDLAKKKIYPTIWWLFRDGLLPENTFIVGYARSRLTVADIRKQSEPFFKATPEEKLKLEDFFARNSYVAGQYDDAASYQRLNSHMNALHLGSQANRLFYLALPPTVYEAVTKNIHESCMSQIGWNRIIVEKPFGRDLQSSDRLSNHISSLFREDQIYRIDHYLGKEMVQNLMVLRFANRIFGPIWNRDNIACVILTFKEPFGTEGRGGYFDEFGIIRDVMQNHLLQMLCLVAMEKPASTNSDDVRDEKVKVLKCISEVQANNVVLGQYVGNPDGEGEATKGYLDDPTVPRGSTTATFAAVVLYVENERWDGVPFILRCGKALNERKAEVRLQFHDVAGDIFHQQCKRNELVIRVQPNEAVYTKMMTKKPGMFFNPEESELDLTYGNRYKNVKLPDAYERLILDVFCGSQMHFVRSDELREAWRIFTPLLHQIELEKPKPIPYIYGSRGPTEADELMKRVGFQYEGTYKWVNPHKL
# Sequence of Glycogen synthase kinase-3 alpha (P49840 whole entry): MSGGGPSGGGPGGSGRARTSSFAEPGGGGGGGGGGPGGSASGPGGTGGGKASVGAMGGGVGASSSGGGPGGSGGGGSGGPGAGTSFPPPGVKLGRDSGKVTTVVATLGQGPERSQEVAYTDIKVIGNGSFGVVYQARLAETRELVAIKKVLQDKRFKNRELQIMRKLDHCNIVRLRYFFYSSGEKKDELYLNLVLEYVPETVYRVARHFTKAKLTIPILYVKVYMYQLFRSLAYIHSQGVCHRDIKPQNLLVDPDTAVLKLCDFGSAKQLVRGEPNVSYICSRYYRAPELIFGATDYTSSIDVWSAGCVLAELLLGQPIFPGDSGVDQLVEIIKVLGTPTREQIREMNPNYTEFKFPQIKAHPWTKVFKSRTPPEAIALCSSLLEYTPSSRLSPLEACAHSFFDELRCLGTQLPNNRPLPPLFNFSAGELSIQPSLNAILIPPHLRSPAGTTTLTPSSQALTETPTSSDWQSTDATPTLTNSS
# Sequence of Glycogen synthase kinase-3 beta (P49841 whole entry): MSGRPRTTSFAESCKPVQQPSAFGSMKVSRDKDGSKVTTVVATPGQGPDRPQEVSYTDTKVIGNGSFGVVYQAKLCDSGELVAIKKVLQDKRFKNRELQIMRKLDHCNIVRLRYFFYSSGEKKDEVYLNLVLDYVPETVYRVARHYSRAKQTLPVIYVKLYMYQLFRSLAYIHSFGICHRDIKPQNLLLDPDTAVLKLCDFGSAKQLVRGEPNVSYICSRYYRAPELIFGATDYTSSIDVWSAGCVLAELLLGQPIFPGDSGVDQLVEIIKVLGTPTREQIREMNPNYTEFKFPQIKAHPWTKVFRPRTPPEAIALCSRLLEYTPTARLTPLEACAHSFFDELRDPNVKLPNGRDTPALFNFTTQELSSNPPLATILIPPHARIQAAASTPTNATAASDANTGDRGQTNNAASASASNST
# Sequence of Beta-2 adrenergic receptor (P07550 whole entry): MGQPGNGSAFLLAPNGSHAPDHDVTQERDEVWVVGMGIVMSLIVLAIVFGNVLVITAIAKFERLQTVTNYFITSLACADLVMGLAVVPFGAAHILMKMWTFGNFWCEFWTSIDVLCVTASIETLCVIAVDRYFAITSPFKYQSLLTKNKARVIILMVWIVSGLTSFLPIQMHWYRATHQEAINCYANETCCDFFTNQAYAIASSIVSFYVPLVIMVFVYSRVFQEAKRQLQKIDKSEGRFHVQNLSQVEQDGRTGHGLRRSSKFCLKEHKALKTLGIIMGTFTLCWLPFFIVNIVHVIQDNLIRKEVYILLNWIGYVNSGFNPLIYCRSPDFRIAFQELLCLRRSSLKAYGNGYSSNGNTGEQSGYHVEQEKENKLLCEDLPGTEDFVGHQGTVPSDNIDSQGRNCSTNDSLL
# Sequence of Latent membrane protein 1 (P03230 whole entry): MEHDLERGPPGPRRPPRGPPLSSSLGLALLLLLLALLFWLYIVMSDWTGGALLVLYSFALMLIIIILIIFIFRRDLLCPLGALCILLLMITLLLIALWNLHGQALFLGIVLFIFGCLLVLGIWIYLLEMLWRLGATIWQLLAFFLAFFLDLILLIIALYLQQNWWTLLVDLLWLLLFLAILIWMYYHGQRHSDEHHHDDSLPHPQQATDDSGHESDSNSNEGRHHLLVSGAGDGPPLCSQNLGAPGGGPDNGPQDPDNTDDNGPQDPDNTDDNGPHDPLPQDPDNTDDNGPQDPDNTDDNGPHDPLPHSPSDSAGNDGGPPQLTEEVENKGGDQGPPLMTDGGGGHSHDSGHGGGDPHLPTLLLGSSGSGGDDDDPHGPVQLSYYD
compound,measurement,setting,value
CC(=NNC(=S)N1CCN(c2ccccn2)CC1)c1nccs1,IC50,CHO,0.11 µM (active)
same,IC50,Nonstructural protein 1,3.38 µM (active)
same,AC50,HEK293,4.44 µM (active)
same,AC50,A-375,34.7 µM (active)
same,CC50,Vero [1],8.98 µM (active)
same,IC50,Vero [2],> 25 µM (active)
same,AC50,[3],2.18 µM (active)
same,AC50,[4],0.681 µM (active)
same,AC50,[5],5.18 µM (active)
same,IC50,[6],> 80 µM (inactive)
O/N=C/c1cn(-c2ccccc2)nc1-c1cccnc1,AC50,[7],0.246 µM (active)
same,AC50,[8],0.828 µM (active)
C[C@@H]1CN([C@@H](C)CO)C(=O)c2cccc(NC(=O)Nc3cccc4ccccc34)c2O[C@H]1CN(C)S(=O)(=O)c1ccc2ncsc2c1,AC50,[9],34.6 µM (active)
same,AC50,INS1 [10],38.8 µM (active)
same,AC50,INS1 [11],24.9 µM (active)
same,AC50,INS1 [12],176 µM (active)
Cc1cc(C)cc(C(=O)NC(CC(N)=O)c2ccc(N3CCN(c4ccccn4)CC3)c([N+](=O)[O-])c2)c1 (centres undefined),EC50,[13],0.714 µM (active)
Cn1c(-c2ccccc2)cnc1SCc1nc(O)c2ccccc2n1,EC50,[14],> 50 µM (not active)
same,AC50,Escherichia coli,234 µM (active)
